Assay: Stability in mammalian liver microsomes (Example D)
Format: in vitro ADME
Conditions: human liver microsomes 0.5 mg/mL, 0.5 μM compound, 37° C.; scaled from in vitro half-life (Obach method); linker comparators
Protocol: Compounds of Formula I were assessed for their stability in mammalian liver microsomes. A compound of Formula I (0.5 μM) was incubated with pooled mixed gender human liver microsomes (HLM) (0.5 mg/mL total protein) at 37° C. in the presence of an NADPH-generating system containing 50 mM, pH 7.4 potassium phosphate buffer, 3 mM magnesium chloride, 1 mM EDTA, 1 mM NADP, 5 mM glusose-6-phosphate, and 1 Unit/mL glucose-6-phosphate dehydrogenase. All concentrations were relative to the final incubation volume of 125 μL. Incubations were conducted at 37° C. for 0, 5, 10, 20, 40 and 60 minutes in a water bath and terminated by rapid mixing with 150 μL of ice-cold acetonitrile containing internal standard, and precipitated proteins were removed by centrifugation prior to LC-MS/MS analysis. Aliquots of the resulting supernatant fractions were analyzed by LC-MS/MS monitoring for depletion of parent compound. The resultant peak area ratio versus time data was fitted to a non-linear regression using XLfit Scientific Curve Fitting Software (IDBS Ltd., Surrey, UK) and half-life was calculated from the slope. Pharmacokinetic parameters were predicted using the method described by Obach et al (J. Pharmcol. Exp. Ther. 1997; 283:46.58). Briefly, values for intrinsic clearance were calculated from the in vitro half-life data and were then scaled to represent the clearance expected in the entire animal (human). Additional values calculated included predicted extraction ratio and predicted maximum bioavailability. For example, the O-linker has better metabolic stability relative to the methyl linker or the —CH2O-linker, as shown by the following comparators

Structure (SMILES) | Metabolic stability - predicted systemic clearance
Cc1cc(-c2cc(Oc3ccc4c(cnn4C)c3)ccn2)ccc1C(N)=O [drawing 283] | Metabolic stability - predicted systemic clearance (example D, above) is 8.0 ml/min/kg
Cc1cc(-c2cc(Oc3ccc4cnn(C)c4c3)ccn2)ccc1C(N)=O [drawing 281] | Metabolic stability - predicted systemic clearance (example D, above) is 3.6 ml/min/kg
Cc1cc(-c2cc(COc3ccc4c(cnn4C)c3)ccn2)ccc1C(N)=O | Metabolic stability - predicted systemic clearance (example D, above) is 12.3 ml/min/kg
Cc1cc(-c2cc(Cc3ccc4cnn(C)c4c3)ccn2)ccc1C(N)=O | Metabolic stability - predicted systemic clearance (example D, above) is 11.3 ml/min/kg

Reference: patent US20260167615A1, “COMPOUNDS AND COMPOSITIONS AS GPR52 MODULATORS” (Neurocrine Biosciences, Inc., priority 2022, published 2026)
